Values quoted from earlier work in patent US20160310758A1, “SYSTEMS AND METHODS FOR PHOTOACTIVATING A PHOTOSENSITIZER APPLIED TO AN EYE” (Avedro, Inc., priority 2015, published 2016).

Tests used:
bacteria = conditions: D2O by itself, without photosensitizer; Skladnev et al. 1996
[1] = non-ionic permeability enhancer in riboflavin formulations

Row | Compound | killing of bacteria (bacteria) | HLB number [1]
1 | [2H]O[2H] [D2O, deuterated water] | does not kill bacteria | –
2 | Polyoxyethylene (9) lauryl ether [Polidocanol] | – | approximately 13.6
